Data: US20220323406A1, “METHODS AND COMPOSITIONS FOR DIFFERENTIATING STEM CELLS” (Massachusetts Institute of Technology, priority 2019, published 2022)

Experiments:
[1] = system: ENR+CD organoids (ISC to Paneth cell differentiation); assay: Primary screen: basal (non-stimulated) lysozyme secretion LYZ.NS, 2.5-D 384-well ENR+CD organoid differentiation; assay type: cell-based, mouse; details: primary screen; for Z.LYZ.NS: standard z score
Excerpt: (§1) High-throughput screening.

[2] = system: ENR+CD organoids (ISC to Paneth cell differentiation); assay: Primary screen: CCh-stimulated lysozyme secretion LYZ.S, 2.5-D 384-well ENR+CD organoid differentiation; assay type: cell-based, mouse; details: primary screen
Excerpt: as §1

[3] = system: ENR+CD organoids; assay: Primary screen: ATP (CellTiter-Glo 3D, CTG) cell number/viability, 2.5-D 384-well ENR+CD organoids; details: primary screen;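 note: compounds given at plating and again on day 3 over a 6-day differentiation from ENR+CV stem-cell-enriched precursors, ATP measured on day 6, plate median as control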
[4] = dose 0.08 uM, FC vs plate median
[5] = dose 0.40 uM, FC vs plate median
[6] = dose 2.00 uM, FC vs plate median
[7] = dose 10.00 uM, FC vs plate median
[8] = dose 0.08 uM, FC relative to plate median
[9] = dose 0.40 uM, FC relative to plate median
[10] = dose 2.00 uM, FC relative to plate median
[11] = dose 10.00 uM, FC relative to plate median

Row | Compound | Z.LYZ.NS ([1]; dose 0.08 uM) | Z.LYZ.NS ([1]; dose 0.40 uM) | Z.LYZ.NS ([1]; dose 2.00 uM) | Z.LYZ.NS ([1]; dose 10.00 uM) | Dose.FC.LYZ.NS [1, 8] | Dose.FC.LYZ.NS [1, 9] | Dose.FC.LYZ.NS [1, 10] | Dose.FC.LYZ.NS [1, 11] | Dose.FC.LYZ.S [2, 8] | Dose.FC.LYZ.S [2, 9] | Dose.FC.LYZ.S [2, 10] | Dose.FC.LYZ.S [2, 11] | Dose.FC.CTG [3, 8] | Dose.FC.CTG [3, 9] | Dose.FC.CTG [3, 10] | Dose.FC.CTG [3, 11] | further results
1 | Nc1cccc2c1C(=O)N(C1CCC(=O)NC1=O)C2=O (centres unmarked) [Pomalidomide] | −0.019 | −0.013 | −0.334 | −1.098 |  |  |  |  |  |  |  |  |  |  |  |  | Dose.FC.LYZ.NS [1, 4]: −0.002 log2 fold change; Dose.FC.LYZ.NS [1, 5]: −0.001 log2 fold change; Dose.FC.LYZ.NS [1, 6]: −0.038 log2 fold change; Dose.FC.LYZ.NS [1, 7]: −0.126 log2 fold change; Dose.FC.LYZ.S [2, 4]: −0.028 log2 fold change; Dose.FC.LYZ.S [2, 5]: −0.082 log2 fold change; Dose.FC.LYZ.S [2, 6]: −0.115 log2 fold change; Dose.FC.LYZ.S [2, 7]: −0.205 log2 fold change; Dose.FC.CTG [3, 4]: 0.063 log2 fold change; Dose.FC.CTG [3, 5]: 0.224 log2 fold change; Dose.FC.CTG [3, 6]: −0.216 log2 fold change; Dose.FC.CTG [3, 7]: −0.305 log2 fold change
2 | Ifenprodil Tartrate |  |  |  |  |  |  |  |  |  |  |  |  |  |  |  |  | Dose.FC.LYZ.NS (log2 fold change) ([1]; dose 0.08 uM): 0.056; Z.LYZ.NS (standard z score) ([1]; dose 0.08 uM): 0.492; Dose.FC.LYZ.NS (log2 fold change) ([1]; dose 0.40 uM): −0.019; Z.LYZ.NS (standard z score) ([1]; dose 0.40 uM): −0.161; Dose.FC.LYZ.NS (log2 fold change) ([1]; dose 2.00 uM): 0.123; Z.LYZ.NS (standard z score) ([1]; dose 2.00 uM): 1.068; Dose.FC.LYZ.NS (log2 fold change) ([1]; dose 10.00 uM): −0.219; Z.LYZ.NS (standard z score) ([1]; dose 10.00 uM): −1.909; Dose.FC.LYZ.S (log2 fold change) ([2]; dose 0.08 uM): 0.050; Dose.FC.LYZ.S (log2 fold change) ([2]; dose 0.40 uM): 0.017; Dose.FC.LYZ.S (log2 fold change) ([2]; dose 2.00 uM): −0.023; Dose.FC.LYZ.S (log2 fold change) ([2]; dose 10.00 uM): −0.301; Dose.FC.CTG (log2 fold change) ([3]; dose 0.08 uM): 0.102; Z.CTG (standard z score) ([3]; dose 0.08 uM): 0.243; Dose.FC.CTG (log2 fold change) ([3]; dose 0.40 uM): 0.111; Z.CTG (standard z score) ([3]; dose 0.40 uM): 0.265; Dose.FC.CTG (log2 fold change) ([3]; dose 2.00 uM): −0.003; Z.CTG (standard z score) ([3]; dose 2.00 uM): −0.008; Dose.FC.CTG (log2 fold change) ([3]; dose 10.00 uM): −1.034; Z.CTG (standard z score) ([3]; dose 10.00 uM): −2.471
3 | CC(C)N(CCCNC(=O)Nc1ccc(C(C)(C)C)cc1)C[C@H]1O[C@@H](n2cc(Br)c3c(N)ncnc32)[C@H](O)[C@@H]1O [SGC0946] | 0.787 | −0.236 | 1.738 | 0.516 | 0.090 log2 fold change | −0.027 log2 fold change | 0.200 log2 fold change | 0.059 log2 fold change | 0.145 log2 fold change | −0.098 log2 fold change | 0.220 log2 fold change | 0.065 log2 fold change | 0.052 log2 fold change | −0.122 log2 fold change | −0.082 log2 fold change | −0.142 log2 fold change | 
4 | O=C(NC[C@H]1CN(c2ccc(N3CCOCC3=O)cc2)C(=O)O1)c1ccc(Cl)s1 [Rivaroxaban] | 0.941 | −0.248 | 1.336 | −0.390 | 0.108 log2 fold change | −0.029 log2 fold change | 0.153 log2 fold change | −0.045 log2 fold change | 0.136 log2 fold change | −0.027 log2 fold change | 0.063 log2 fold change | −0.048 log2 fold change | 0.021 log2 fold change | 0.195 log2 fold change | 0.052 log2 fold change | 0.044 log2 fold change | 
